According to US7018995B2, “Carbonate and carbamate modified forms of glucocorticoids” (Sepracor Inc., priority 2002, dated 2006):

Key:
[1] = test system: WI-38 human lung fibroblast line (IL-1β-stimulated PGE2); assay: Inhibition of IL-1β-stimulated PGE2 release in WI-38 cells; assay type: cell-based; conditions: WI-38 cells stimulated with recombinant human IL-1β, 24 hours incubation, PGE2 by EIA; read-out: IC50 (level of PGE2 in supernatants)
Protocol: Compounds as described above were tested in the following assay for biological activity. The WI-38 human lung fibroblast line was obtained from the ATCC (catalog number 75-CCL) and maintained in Basal Medium Eagle with Earle's salts (GibcoBRL product number 21010-046) supplemented with 2 mM glutamine and 10% fetal calf serum at 37° C. in a 7% CO2 (balance air), humidified atmosphere. One week before experiments were done, the WI-38 cells were seeded into 48-well tissue culture dishes and maintained in media containing 10% fetal calf serum. The cells were used when confluent. The day before the experiment the cells were fed fresh media containing 10% fetal calf serum (0.25 mL per well). On the day of the experiment the media was removed from the cells and 0.25 mL of media containing 5% fetal calf serum added.
To determine the IC50 values for the compounds, 1 to 1000 dilutions were made of the 5 mM stock solutions in DMSO to give 5 uM solutions. These solutions were serially diluted 1:2 in DMSO to give a series of 12 dilutions ranging from 5 uM to 2.4 nM. 0.0025 mL aliquots of the 12 dilutions were added to wells of the WI-38 cells to give final compound concentrations ranging from 50 nM to 0.024 nM. The cells were stimulated by addition of 0.001 mL of 0.025 ug/mL recombinant human Interleukin-1β (IL-1β-Calbiochem catalog number 407615) in 0.1% bovine serum albumin in phosphate buffered saline. The cells were incubated for 24 hours and the supernatants harvested. The level of PGE2 in the supernatants was assayed using a commercial Enzyme Immuno Assay (EIA) kit (Cayman Chemical catalog number 514010) after diluting 1:10 in EIA buffer according to the manufacturer's directions. The data from these experiments was fit to a 4 parameter logistic function using the IC50 routine in the Grafit 4 program (Erithecus software).

[2] = test system: rat paw edema; assay: Carrageenan rat paw edema model; assay type: in vivo; conditions: for reduction of swelling (percent inhibition of edema volume vs vehicle): injected into paw; for maximum activity at 24 hours / onset of action: rat paw edema
Protocol: The compounds of the invention were also tested in vivo in a rat paw edema model [Hirschelmann, R. and Bekemeier, H., Int J Tissue React 6, 471-475 (1984)], which persons of skill in the art accept as predictive of efficacy in treating asthma and rhinitis in humans.
Rat Paw Edema Protocol: Male Sprague Dawley rats Rj: SD (IOPS Han) (CEJ, France) weighing between 140 and 160 grams were used in the studies. Animals were housed in a temperature (19.5-24.5° C.), relative humidity (40-70%) and 12-hour light/dark cycle (light 6:00 a.m. to 6:00 p.m.)-controlled room, with ad libitum access to filtered tap-water and standard pelleted laboratory chow (U.A.R., France) throughout the studies. Carrageenan lambda type IV (Sigma, France) was prepared as a 2% (w/v) solution in saline. Compounds to be tested were dissolved in dimethylsulfoxide (DMSO) such that the indicated doses were in a final volume of 0.05 mL. Doses were expressed as mg/paw free active substance. From 17 to 19 hours before the studies the rats were fasted with free access to water. The paw volumes of the left hindpaws of the rats were measured using an electronic plethysmometer type 7140 (Ugo Basile-Italy) at time=0. Paw edema was then induced by injection of 0.05 mL of 2% carrageenan solution into the left hindpaws of the rats. Immediately after injection of the carrageenan, compounds in DMSO or vehicle alone were injected into the same paw in a volume of 0.05 mL in a blind and random fashion.
The paw volumes were measured at 1.5 hours, 3 hours, 4.5 hours and 24 hours after administration of the compounds. The edema volume of each rat at each time point was expressed as the change from the initial paw volume (time=0). A total of 5 rats were used for each compound dose and the average edema volume calculated for each dose. The anti-inflammatory effect in treated groups was expressed as the percent inhibition of edema volume compared to the vehicle-treated group at 1.5 hours, 3 hours, 4.5 hours and 24 hours.

[3] = at 24 hours, equimolar doses equivalent to 10 μg per paw of budesonide, FIG. 1

CCCC1O[C@@H]2C[C@H]3[C@@H]4CCC5=CC(=O)C=C[C@]5(C)[C@H]4[C@@H](O)C[C@]3(C)[C@]2(C(=O)CO)O1 (stereo partly shown) [budesonide, reference compound]
IC50 [1]: 0.2 nM | reduction of swelling (percent inhibition of edema volume vs vehicle) [2, 3]: 46%

Budesonide dodecylcarbonate [Example 2]
IC50 [1]: 0.53 nM | reduction of swelling (percent inhibition of edema volume vs vehicle) [2, 3]: 88%

CCCC1OC2CC3C4CCC5=CC(=O)C=CC5(C)C4C(O)CC3(C)C2(C(=O)COC(=O)OCCCCCCCCCCCN(C)C)O1 (stereo not shown) [Example 15, Budesonide 11-dimethylaminoundecylcarbonate]
maximum activity at 24 hours [2]: 73%

Budesonide heptylcarbonate [Example 14]
efficacy compared with the C6 carbonate ester [2, 3]: more efficacious

Budesonide farnesolcarbonate [Example 17]
onset of action [2]: normal onset of action | maximum activity at 24 hours [2]: 86%

Budesonide hexylcarbonate [Example 3]
IC50 [1]: 0.14 nM

CCCCCCCCCCOC(=O)OCC(=O)[C@@]12OC(CCC)O[C@@H]1C[C@H]1[C@@H]3CCC4=CC(=O)C=C[C@]4(C)[C@H]3[C@@H](O)C[C@@]12C (stereo partly shown) [Example 8, Budesonide decylcarbonate]
more efficacious than budesonide itself [2, 3]: 30%

Budesonide phytolcarbonate [Example 16]
onset of action [2]: normal onset of action | maximum activity at 24 hours [2]: 69%

CCCC1OC2CC3C4CCC5=CC(=O)C=CC5(C)C4C(O)CC3(C)C2(C(=O)COC(=O)OCC(C)C)O1 (stereo not shown) [Example 1, Budesonide isobutylcarbonate]
IC50 [1]: 0.12 nM
